Data as given in patent US20200022963A1, “PHARMACEUTICAL COMPOSITION COMPRISING BETAHISTINE” (Otolanum AG, priority 2017, published 2020).
Read-outs that look alike come from different tables or passages of the source.

How the values were obtained:
[1] = Single ascending-dose clinical trial of intranasal betahistine in healthy volunteers (safety); type: in vivo; settings: human
Description: (§1) The safety and pharmacokinetic profile of intranasal betahistine was further evaluated in a double-blind, randomized, placebo-controlled, single ascending-dose clinical trial involving a total of 32 healthy male and female volunteers. The main inclusion criteria were that subjects had to be aged 18-45 years and show a body mass index within the range of 18-30 kg/m^2. Subjects were required to fast for 8 hours prior to study drug administration and for 2 hours post-dose.
(§2) The betahistine was supplied as a 50 and 200 mg/mL solution in a HDPE bottle and spray pump pack (Aptar Classic Line) that delivers an accurate 100 μL per actuation. The study drug was delivered into the right nostril of subjects while they were in a supine position. For the 5 and 20 mg doses, one application of 50 and 200 mg/mL, respectively, was needed, whereas for the 10 and 40 mg doses, two applications of 50 and 200 mg/mL were required.

[2] = Single ascending-dose clinical trial of intranasal betahistine in healthy volunteers (plasma pharmacokinetics, LC-MS/MS); settings: human; for half-life / AUC / AUC(0-inf) / AUC(0-t) / Cmax / Tmax: both, plasma, inhaled or intranasal
Description: as §1, §2
Serial blood samples were collected through 24 hours, following dosing on Day 1, at Day 4 and Day 7 to determine concentrations of betahistine and its main metabolite, 2-PAA in plasma. Plasma samples were assayed for BH content using validated procedures and methods. Blood samples (6 mL) were collected into tubes containing K2EDTA and were centrifuged at approximately 2000 g for 10 minutes at +4° C. and the resultant plasma transferred into 2 clean, labelled 2 mL cryovials. All plasma samples were stored at −70° C. or below until all samples had been collected and sent as a single batch for analysis. […] Concentrations were determined using liquid chromatographic tandem mass spectrometry (LC-MS/MS; SCIEX API 5000 for betahistine and SCIEX API 4000 for 2-PAA) with a validated method. Betahistine-^13CD3 dihydrochloride and 2-PAA-D4 hydrochloride served as internal standards. The standard calibration range—using a plasma sample volume of 0.2 and 0.1 mL, respectively—for betahistine was 10 to 800 pg/mL and for 2-PAA it was 2 to 2000 ng/mL. The limit of quantitation was 10 pg/mL for betahistine and 2.0 ng/mL for 2-PAA.
In case of betahistine, the method involved a liquid-liquid extraction; in case of 2-PAA it involved protein precipitation. For betahistine, plasma samples were extracted under basic conditions with an organic solvent; the organic phase was dried and reconstituted in reconstitution solvent. Approximately 0.120 mL of the aqueous layer was transferred into polypropylene vials for LC-MS/MS analysis. For 2-PAA plasma samples were precipitated with a mixture of organic solvents, supernatant was diluted and 0.120 mL was transferred into polypropylene vials for LC-MS/MS analysis. Sample analysis was conducted using reversed phase chromatography.
For each subject who completed the study, plasma concentration-time data of betahistine and 2-PAA were used for the calculation of the following pharmacokinetic parameters: • Cmax Maximum observed plasma concentration obtained directly from the data. • tmax Time to maximum observed concentration, taken directly from the data. If the maximum plasma concentration occurred at more than one time point, the first was chosen. • AUC0-last Area under the plasma concentration versus time curve, calculated using the linear trapezoidal rule from time 0 to time t, where t is the time of last quantifiable concentration. • λz Terminal elimination rate constant obtained from the slope of the line, fitted by linear least squares regression through the terminal points of the logarithmic concentration-time profiles (sometimes also referred to as kel). • AUC0-inf Area under the plasma concentration versus time curve from zero to infinity, calculated as (AUC0-t+Ct/λz), where Ct is the last quantifiable concentration. • t1/2 Apparent terminal half-life, calculated as t1/2=ln(2)/λz.
Dose normalized parameters Cmax/Dose and AUC/Dose were also calculated.

[3] = Relative bioavailability of intranasal versus oral betahistine in humans, Example 6; type: in vivo; settings: human
[4] = Oral betahistine study in healthy women, Barak et al.; type: in vivo; settings: human, oral 48 mg (0.8 mg/kg), Barak et al. data
Description: For the calculation of the relative bioavailability of intranasal betahistine compared to peroral betahistine, the area under the concentration-time curve (AUC) determined in Example 3 was compared to the AUC determined in a study with oral betahistine in healthy volunteers described in Barak et al. (Journal of Psychopharmacology, 2016, Vol. 30(3) 237-241). In brief, in this study, forty-eight healthy women were recruited and randomized to receive per os (i.e. orally) either betahistine 144 mg/day (48 mg t.i.d.) or matching placebo for 4 weeks. Their mean weight was 60.2 kg in the active-treated group (n=24) and 59.8 kg in the placebo group (n=24). Study medication (betahistine or matching placebo) was administered at least 30 minutes prior to eating. On Day 8, blood samples of 6 mL each were collected at 8 am, and 30, 60, 150 and 300 minutes thereafter. Plasma concentrations of betahistine and its metabolite 2-PAA were determined by high-performance liquidy chromatography.

[5] = Toxicokinetic assessment of plasma betahistine and 2-PAA after intranasal betahistine (LC-MS/MS), Example 2; settings: both, beagle, dog, inhaled or intranasal
Description: The safety and pharmacokinetic profile of intranasal betahistine was first evaluated in a single dose toxicology study in male and female beagle dogs (14-21 months of age, weight 8.2-11.8 kg). Both the vehicle and test article were delivered in a single dose via a nasal spray pump (Aptar Classic Line) with a delivery volume of 100 μL into both nostrils at total dose levels of 0 (vehicle), 4, 20 or 80 mg of betahistine dihydrochloride. Each treatment group was made up of 1 dog/sex.
Plasma concentrations were measured with liquid chromatographic tandem mass spectrometry (LC-MS/MS; SCIEX API 5000 for betahistine and SCIEX API 4000 for 2-pyridylacetic acid (2-PAA)) with a validated method. Betahistine-^13CD3 dihydrochloride and 2-PAA-D4 hydrochloride served as internal standards. The standard calibration range—using a plasma sample volume of 0.05 mL—for betahistine was 0.05 to 50 ng/mL and for 2-PAA it was 1 to 1000 ng/mL. The limit of quantitation was 0.05 ng/mL for betahistine and 1.0 ng/mL for 2-PAA.
In case of betahistine, the method involved a liquid-liquid extraction; in case of 2-PAA it involved protein precipitation. For betahistine, plasma samples were extracted under basic conditions with an organic solvent; the organic phase was dried and reconstituted in reconstitution solvent. Approximately 0.1 mL of the aqueous layer was transferred into polypropylene vials for LC-MS/MS analysis. For 2-PAA, plasma samples were precipitated with a mixture of organic solvents, supernatant was diluted and 0.12 mL was transferred into polypropylene vials for LC-MS/MS analysis. Sample analysis was conducted using reversed phase chromatography.

[6] = human, cited from earlier work
[7] = Single-dose and repeat-dose intranasal toxicology study in beagle dogs (safety); type: in vivo; settings: dog
From the text: Salivation after betahistine treatment was previously reported to occur in dogs, it was transient in nature in the present study and resolved quickly. Body weights, clinical pathology and gross necropsy findings were unremarkable.

[8] = Tolerability of intranasal betahistine in beagle dogs, Example 5; type: in vivo; settings: dog
Description: In this study, the pharmacokinetic profile of betahistine was evaluated after a single dose administration of betahistine in male and female beagle dogs (age 5-7 months; weight of 5-11 kg, within a range of 3 kg for each sex) for three routes of administration: oral, intranasal, and intravenous.
On Day 8 of the study, the animals that received oral BH at a dose of 12 mg/kg were administered the test betahistine composition intranasally at a dose of 40 mg betahistine dihydrochloride; the animals that received oral BH at a dose of 24 mg/kg were administered the test betahistine composition intranasally at a dose of 80 mg betahistine dihydrochloride; and the animals that received oral BH at a dose of 48 mg/kg were administered the test betahistine composition intranasally at a dose of 120 mg betahistine dihydrochloride. The test betahistine composition was delivered intranasally in a single dose via an Aptar nasal spray pump device at a total dose level of 40, 80 and 120 mg of betahistine dihydrochloride. Plasma samples were collected prior to dosing, and then at 5, 10, 20 and 30 min, 1, 2, 3, 6, 24 hours after dosing.

[9] = intranasal single and repeated dose

**Q.** With `CNCCc1ccccn1` [betahistine] as the molecule, how does the “hematology, biochemistry, urinalysis, vital signs and electrocardiogram assessments” value ([1]; active- versus placebo-treated subjects) read?
**A.** The value was “no differences”.

**Q.** What about the tolerability ([1]; intranasal 5, 10, 20 and 40 mg) of the same molecule?
**A.** The tolerability was “well tolerated”.

**Q.** And the half-life [2]?
**A.** The half-life was under 60 min.

**Q.** And the AUC ([2]; 0.07 mg/kg)?
**A.** Its AUC is 0.209 ng·h/mL.

**Q.** What about the AUC ([2]; 0.15 mg/kg) of the same molecule?
**A.** Its AUC is 0.533 ng·h/mL.

**Q.** What about the AUC ([2]; 0.29 mg/kg) of the same molecule?
**A.** Its AUC is 1.61 ng·h/mL.

**Q.** What about the AUC ([2]; 0.57 mg/kg) of the same molecule?
**A.** The AUC was 3.53 ng·h/mL.

**Q.** And the AUC(0-inf) ([2]; 5 mg)?
**A.** The AUC(0-inf) was 0.277 ng·h/mL.

**Q.** And the AUC(0-t) ([2]; 5 mg)?
**A.** Its AUC(0-t) is 0.209 ng·h/mL.

**Q.** What about the Cmax ([2]; 5 mg) of the same molecule?
**A.** Its Cmax is 0.638 ng/mL.

**Q.** What about the Tmax ([2]; 5 mg) of the same molecule?
**A.** The Tmax was 12.5 min.

**Q.** And the half-life ([2]; 5 mg)?
**A.** Its half-life is 12.5 min.

**Q.** What about the AUC(0-inf) ([2]; 10 mg) of the same molecule?
**A.** Its AUC(0-inf) is 0.697 ng·h/mL.

**Q.** What about the AUC(0-t) ([2]; 10 mg) of the same molecule?
**A.** The AUC(0-t) was 0.533 ng·h/mL.

**Q.** And the Cmax ([2]; 10 mg)?
**A.** The Cmax was 2.11 ng/mL.

**Q.** What about the Tmax ([2]; 10 mg) of the same molecule?
**A.** The Tmax was 10 min.

**Q.** What about the half-life ([2]; 10 mg) of the same molecule?
**A.** The half-life was 53 min.

**Q.** What about the AUC(0-inf) ([2]; 20 mg) of the same molecule?
**A.** Its AUC(0-inf) is 1.63 ng·h/mL.

**Q.** And the AUC(0-t) ([2]; 20 mg)?
**A.** Its AUC(0-t) is 1.61 ng·h/mL.

**Q.** What about the Cmax ([2]; 20 mg) of the same molecule?
**A.** Its Cmax is 4.11 ng/mL.

**Q.** And the Tmax ([2]; 20 mg)?
**A.** Its Tmax is 10 min.

**Q.** And the half-life ([2]; 20 mg)?
**A.** The half-life was 31.1 min.

**Q.** What about the AUC(0-inf) ([2]; 40 mg) of the same molecule?
**A.** Its AUC(0-inf) is 2.94 ng·h/mL.

**Q.** What about the AUC(0-t) ([2]; 40 mg) of the same molecule?
**A.** Its AUC(0-t) is 3.53 ng·h/mL.

**Q.** What about the Cmax ([2]; 40 mg) of the same molecule?
**A.** Its Cmax is 10.5 ng/mL.

**Q.** And the Tmax ([2]; 40 mg)?
**A.** The Tmax was 7.5 min.

**Q.** What about the half-life ([2]; 40 mg) of the same molecule?
**A.** The half-life was 55.6 min.

**Q.** What about the “peak concentration in plasma” value ([2]; intranasal 20 mg) of the same molecule?
**A.** The value was 4.1 ng/mL.

**Q.** What about the “peak concentration in plasma” value ([2]; intranasal 40 mg) of the same molecule?
**A.** Its value is 10.5 ng/mL.

**Q.** And the AUC/Dose ([3]; intranasal 5 mg (0.07 mg/kg))?
**A.** Its AUC/Dose is 3.01 (h · ng/mL)/(mg/kg).

**Q.** What about the AUC/Dose ([3]; intranasal 10 mg (0.15 mg/kg)) of the same molecule?
**A.** Its AUC/Dose is 3.67 (h · ng/mL)/(mg/kg).

**Q.** And the AUC/Dose ([3]; intranasal 20 mg (0.29 mg/kg))?
**A.** The AUC/Dose was 5.60 (h · ng/mL)/(mg/kg).

**Q.** What about the AUC/Dose ([3]; intranasal 40 mg (0.57 mg/kg)) of the same molecule?
**A.** Its AUC/Dose is 6.21 (h · ng/mL)/(mg/kg).

**Q.** What about the AUC/Dose [4] of the same molecule?
**A.** The AUC/Dose was 0.15 (h · ng/mL)/(mg/kg).

**Q.** And the Tmax [5]?
**A.** The Tmax was 5 min.

**Q.** And the Cmax ([5]; 4 mg)?
**A.** The Cmax was 26 ng/mL.

**Q.** And the Cmax ([5]; 20 mg)?
**A.** The Cmax was 81 ng/mL.

**Q.** What about the Cmax ([5]; 80 mg) of the same molecule?
**A.** The Cmax was 248 ng/mL.

**Q.** What about the AUC ([6]; oral 48 mg (0.8 mg/kg), Barak et al. data) of the same molecule?
**A.** The AUC was 0.121 ng·h/mL.

**Q.** And the “AUC(0-5h)” value ([6]; oral 48 mg t.i.d., approximately 0.8 mg/kg, Day 8, Barak et al.)?
**A.** The value was 0.121 ng·h/mL.

**Q.** And the “test article-related clinical signs” value ([7]; intranasal 80 mg single dose and repeated dose 240 mg/day, transient)?
**A.** Its value is “mild to moderate salivation”.

**Q.** And the “body weights, clinical pathology and gross necropsy findings” value [7, 9]?
**A.** The value was “unremarkable”.

**Q.** And the microscopic findings [7, 9]?
**A.** The microscopic findings was “No adverse treatment-related microscopic findings”.

**Q.** What about the salivation ([8]; highest concentration betahistine group) of the same molecule?
**A.** The salivation was “salivation was noted in most animals”.

**Q.** And the sneezing ([8]; highest dose level)?
**A.** Its sneezing is 2/8.
